What was measured:
[1] = test system: different CVB serotypes (CVB1 to CVB6)/plasma induced IFNα production by PBMCs; assay: IFNα production during infection of PBMCs by different CVB serotypes in presence of plasma preincubated with VP4-CVB4E2; assay type: cell-based, human; settings: plasma 1/10 preincubated 1 h with VP4 recombinant protein of CVB4E2 diluted 1/10
Protocol: PBMCs separated from whole heparinated blood are distributed into microwells (plate of 96 wells), at the rate of 5 to 8.10^5 cell in 100 μl of supplemented RPMI medium by well. The infection of PBMC is made with a final volume of 100 μl of preparation in each well. After incubation for 48 h at 37° C. under a 5% CO2 atmosphere and 90% humidity, the supernatant is harvested and used immediately for IFNα dosage, or clarified by centrifugation for 10 minutes at 180×g and stored at −80° C. until dosage of the produced IFNα.
(§1) The concentration of the produced IFNα is determined with a sensitive and specific technique, the DELFIA method (Dissociation Enhanced Lanthanide FluoroImmmoAssay) (Rönnblom and al 1997).
(§2) The dosage of IFNα is performed following the DELFIA principle (Dissociation Enhanced Lanthanide FluoroImmunoAssay), based on a immunofluorescence in retarded phase method using antibodies binding IFNα of which one is labelled with europium. The use of an activation solution will release the europium conjugated with antibodies and emit a fluorescence proportional to the amount of produced IFNα and measured with a fluorometer (fluorometer LKB Wallac 1230 ARCOSO®, Turku, Finlande).
Monoclonal anti-IFNα antibodies LT 273 (5.4 mg/ml) and LT 293 (4.8 mg/ml) supplied by Dr Gunar Alm (Uppsala, Sweden) are coated to the bottom of the wells after an incubation for 12 hours at room temperature. […]

[2] = test system: CVB3/plasma induced IFNα production by PBMCs; assay: CVB3/plasma induced IFNα production by PBMCs (DELFIA); assay type: cell-based, human; settings: CVB3 infection of PBMCs; healthy donor plasma preincubated 1 h with the VP4 protein before CVB3; 48 h; positive control 323 IU/ml
Protocol: VP4, H antigen or mock proteins were preincubated for 1 h at 37° C. at different concentrations with plasma from 5 healthy subjects diluted at optimal dilution (1/10 or 1/100 ). CVB3 or CVB4 were then added for 1 hour before incubating with PBMCs. […] On the contrary, the mock proteins isolated from non-infected Hep-2 cells have non effect on the IFNα production.
PBMCs separated from whole heparinated blood are distributed into microwells (plate of 96 wells), at the rate of 5 to 8.10^5 cell in 100 μl of supplemented RPMI medium by well. The infection of PBMC is made with a final volume of 100 μl of preparation in each well. […]
as §1
as §2, with “Finlande). […]” for “Finlande).”

## recombinant VP4 protein: recombinant VP4 protein of CVB4E2, made in E. coli as MBP-VP4 fusion and cleaved by Factor Xa
[1]
  IFNα production with CVB serotypes other than CVB4E2: remains high and stable
[2]
  IFNα production: 308 IU/ml

— patent publication US7534558B2, “In vitro diagnostic test for enterovirus infections” (Universite de Lille 2 Droit Et Sante, priority 2003, dated 2009)
